This note sets out measurements from paper PMC11741006, “Raman active diyne-girder conformationally constrained p53 stapled peptides bind to MDM2 for visualisation without fluorophores” (RSC Chemical Biology, 2025).

Residues, ends and D or L forms follow the SMILES beside them. *: point of attachment. FITC = O=C1OC2(c3ccc(O)cc3Oc3cc(O)ccc32)c2ccc(NC(=S)*)cc21; Ahx = NCCCCCC(=O)O

In one data set the target is T1, MDMX (1–134) (Homo sapiens, UniProt O15151).
T1 construct: tested against MDMX (1–134); His6-GST (TEV-cleavable) (N, cleaved yes); made in house; host or cells: E. coli Rosetta 2(DE3)pLysS
T1 sequence (O15151 1-134): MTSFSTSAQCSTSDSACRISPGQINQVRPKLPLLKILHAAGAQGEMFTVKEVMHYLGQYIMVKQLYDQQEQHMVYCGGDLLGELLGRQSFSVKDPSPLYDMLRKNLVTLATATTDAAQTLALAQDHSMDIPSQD
In words: Fluorescence polarisation direct binding assay, MDMX. The note with it: direct FP binding; 10 nM FITC peptide in Tris buffer pH 7.6; protein serially diluted 10 μM to 9 pM; 3 h, room temperature; quadratic ligand depletion fit; n = 3. Here is the method:
The binding properties of the peptide were assessed using a biophysical FP assay. Specifically, a direct binding assay was conducted to calculate the Kd values of the fluorescent peptide ligands binding to the target proteins (eqn (S3), ESI ^†).[29] […] The peptides were first tested for binding with MDM2 (1–138). […] Peptide solutions were made up to a concentration of 10 nM and varying concentrations of protein (10 μM to 9 pM) were incubated with the peptide with FP measurements taken after 3 h (Fig. 4). […] The final analogue examined for its binding of MDM2 was 5FITC, the diyne negative control. […]
resuspension buffer. […]
The His6-GST -tagged proteins were then cleaved with TEV while dialyzing into 330 mM NaCl, PBS, 5 mM BME for 20 hours at 4 °C. […] Protein concentration was measured at an absorbance of 595 nm with the Bio-rad Protein Assay Kit II using bovine serum albumin as a standard. […]
Fluorescence Polarisation Binding Assay
The binding properties of the peptides were assessed using a biophysical FP assay. […] All FP measurements were performed on a microplate reader (CLARIOstar) in black 384-well microplates with 20 μL of sample solution per well. […]
was added and serially diluted from 10 μM to 9 pM. […] Plates were placed in a PerkinElmer Victor X5 plate reader with excitation measured at 531 nm and emission measured at 595 nm. […]
Background: In fluorescence polarisation assays a small probe gives low polarisation when free and higher when bound to something large.

The target of another data set is T2, MDM2 (1–138) (Homo sapiens, UniProt Q00987).
T2 construct: His6-GST (TEV-cleavable) (N, cleaved yes); made in house; host or cells: E. coli Rosetta 2(DE3)pLacI
Description: Fluorescence polarisation direct binding assay, MDM2. The following applies: direct FP binding; 10 nM FITC peptide in Tris buffer pH 7.6; protein serially diluted 10 μM to 9 pM; 3 h, room temperature; quadratic ligand depletion fit; n = 3.

Data set [1] can be described thus: Circular dichroism spectroscopy, percentage helicity. Type of data set: physicochemical. The following applies: CD in PBS pH 7.4, room temperature; from MRE at 222 nm, equations of Luo and Baldwin; peptides analysed at 25 μM and 50 μM. Here is the method: Following the successful synthesis of the diyne peptide 4, it was important to identify the effect of the modified staple on the α-helical nature of the peptide. The effectiveness of the diyne staple as an α-helical constraint was assessed by CD. Experiments were set out to directly compare the diyne stapled peptide 4 to the alkene stapled peptides (cis-2 and trans-3), with the linear peptide 1 employed as a control. CD was performed at two concentrations to investigate whether peptide concentration influenced helicity, as coiled-coil structures are known to increase helicity.[25] Peptide concentrations were quantified using a NanoDrop™ One Microvolume UV-Vis spectrophotometer using the UV absorption of the peptides at 280 nm.[26] Extinction coefficients of the peptides were calculated from Trp and Tyr residues and the Beer–Lambert law employed to calculate the concentrations.
Each of the peptides (1–4) were analysed at 25 μM and 50 μM in phosphate buffered saline (PBS, pH 7.4) (Fig. 3). CD spectra were measured from 190–260 nm and the characteristic α-helical negative maxima examined for their intensity at 208 nm and 222 nm.[27] […] This is to be expected due to the random coil nature of 1. […] Helicity calculations were performed following conversion of the measured degrees of ellipticity (θ) data to mean residue ellipticity (MRE) (eqn (S1), ESI ^†). […]
Cell Permeability Fluorescence Assay […]

T2 sequence (Q00987 1-138): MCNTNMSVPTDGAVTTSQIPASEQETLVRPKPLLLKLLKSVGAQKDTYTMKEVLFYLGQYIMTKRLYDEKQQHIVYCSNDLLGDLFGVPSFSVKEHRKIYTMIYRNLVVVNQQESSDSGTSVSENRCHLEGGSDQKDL
Description for MDM2 (1–138): The binding properties of the peptides were assessed using a biophysical FP assay. Specifically, a direct binding assay was conducted to calculate the Kd values of the fluorescent peptide ligands binding to the target proteins. Fluorescently labelled peptides were tested for binding to MDM2 (1-138) and MDMX (1-134). […] All FP measurements were performed on a microplate reader (CLARIOstar) in black 384-well microplates with 20 μL of sample solution per well.
was added and serially diluted from 10 μM to 9 pM. Peptide (10 nM in Tris buffer pH 7.6) was then added to all wells and mixed. The sample were left to incubate at room temperature for 3 hours. Plates were placed in a PerkinElmer Victor X5 plate reader with excitation measured at 531 nm and emission measured at 595 nm. The raw data was normalized using baseline correction, where the baseline was defined as the fluorescence polarisation measured in the absence of peptide. Normalised data were then plotted in Prism 7.0 and fitted by using the quadratic ligand depletion model (Equation S3).
Y is the fluorescent polarisation signal measured at each datapoint. […]

As a reminder, the Kd is a measure of binding affinity in units of concentration. Higher therefore signals lower affinity. Consider `CC(C)C[C@H](NC(=O)CCCCCNC(=S)Nc1ccc2c(c1)C(=O)OC21c2ccc(O)cc2Oc2cc(O)ccc21)C(=O)N[C@H](C(=O)N[C@@H](Cc1ccccc1)C(=O)N[C@@H](CCC(=O)O)C(=O)N[C@@H](Cc1c[nH]cn1)C(=O)N[C@@H](Cc1ccc(O)cc1)C(=O)N[C@@H](Cc1c[nH]c2ccccc12)C(=O)N[C@@H](C)C(=O)N[C@@H](CCC(N)=O)C(=O)N[C@@H](CC(C)C)C(=O)N[C@H](C(=O)N[C@@H](CO)C(N)=O)[C@@H](C)O)[C@@H](C)O` [1FITC] ({FITC-Ahx}-LTFEHYWAQLTS-NH2), for which the affinity at MDMX (1–134), expressed as Kd, was 20.1 ± 0.23 nM. Consider `CC(C)C[C@H](NC(=O)CCCCCNC(=S)Nc1ccc2c(c1)C(=O)OC21c2ccc(O)cc2Oc2cc(O)ccc21)C(=O)N[C@H](C(=O)N[C@@H](Cc1ccccc1)C(=O)N[C@@]1(C)CCCCCC#CC#CCCCCC[C@@](C)(C(=O)N[C@@H](CO)C(=O)N[C@@H](C)C(=O)N[C@@H](C)C(N)=O)NC(=O)[C@H](CC2CCC2)NC(=O)[C@H](CCC(N)=O)NC(=O)[C@H](C)NC(=O)[C@H](Cc2c[nH]c3ccccc23)NC(=O)[C@H](Cc2ccc(O)cc2)NC(=O)[C@H](CCC(=O)O)NC1=O)[C@@H](C)O` [4FITC], for which, on MDM2 (1–138), the affinity, expressed as Kd, was 1.39 ± 0.08 nM. Consider “Ac-LTFR8EYWAQ(Cba)S5SAA-NH2 (sidechain bridge or staple) [compound 2, i, i + 7 alkene stapled peptide ATSP-7041 (2/3), cis-isomer, acetylated]”, for which the percentage helicity in data set [1] is on record as 48%. Same read-out and setting: the figure for “Ac-LTFS7EYWAQ(Cba)S7SAA-NH2 (sidechain bridge or staple) [compound 4, i, i + 7 diyne-girder stapled peptide analogue of ATSP-7041, acetylated]” is 59%.
